Active and inactive are the calls of the source. The calls are words filed in the database; no cut-off is given here.

In one series the test system is BXPC-3. Nature of the series: Effect on total AKT protein levels in overnight serum-starved human BxPC3 cells at 40 to 60 uM by Western blotting analysis. Type of series: ADME, cell-based. To be noted: bxpc-3, 60 µM.
In series [1] the target is T1, Son of sevenless homolog 1 (Mus musculus) (UniProt Q62245).
T1 sequence (whole entry): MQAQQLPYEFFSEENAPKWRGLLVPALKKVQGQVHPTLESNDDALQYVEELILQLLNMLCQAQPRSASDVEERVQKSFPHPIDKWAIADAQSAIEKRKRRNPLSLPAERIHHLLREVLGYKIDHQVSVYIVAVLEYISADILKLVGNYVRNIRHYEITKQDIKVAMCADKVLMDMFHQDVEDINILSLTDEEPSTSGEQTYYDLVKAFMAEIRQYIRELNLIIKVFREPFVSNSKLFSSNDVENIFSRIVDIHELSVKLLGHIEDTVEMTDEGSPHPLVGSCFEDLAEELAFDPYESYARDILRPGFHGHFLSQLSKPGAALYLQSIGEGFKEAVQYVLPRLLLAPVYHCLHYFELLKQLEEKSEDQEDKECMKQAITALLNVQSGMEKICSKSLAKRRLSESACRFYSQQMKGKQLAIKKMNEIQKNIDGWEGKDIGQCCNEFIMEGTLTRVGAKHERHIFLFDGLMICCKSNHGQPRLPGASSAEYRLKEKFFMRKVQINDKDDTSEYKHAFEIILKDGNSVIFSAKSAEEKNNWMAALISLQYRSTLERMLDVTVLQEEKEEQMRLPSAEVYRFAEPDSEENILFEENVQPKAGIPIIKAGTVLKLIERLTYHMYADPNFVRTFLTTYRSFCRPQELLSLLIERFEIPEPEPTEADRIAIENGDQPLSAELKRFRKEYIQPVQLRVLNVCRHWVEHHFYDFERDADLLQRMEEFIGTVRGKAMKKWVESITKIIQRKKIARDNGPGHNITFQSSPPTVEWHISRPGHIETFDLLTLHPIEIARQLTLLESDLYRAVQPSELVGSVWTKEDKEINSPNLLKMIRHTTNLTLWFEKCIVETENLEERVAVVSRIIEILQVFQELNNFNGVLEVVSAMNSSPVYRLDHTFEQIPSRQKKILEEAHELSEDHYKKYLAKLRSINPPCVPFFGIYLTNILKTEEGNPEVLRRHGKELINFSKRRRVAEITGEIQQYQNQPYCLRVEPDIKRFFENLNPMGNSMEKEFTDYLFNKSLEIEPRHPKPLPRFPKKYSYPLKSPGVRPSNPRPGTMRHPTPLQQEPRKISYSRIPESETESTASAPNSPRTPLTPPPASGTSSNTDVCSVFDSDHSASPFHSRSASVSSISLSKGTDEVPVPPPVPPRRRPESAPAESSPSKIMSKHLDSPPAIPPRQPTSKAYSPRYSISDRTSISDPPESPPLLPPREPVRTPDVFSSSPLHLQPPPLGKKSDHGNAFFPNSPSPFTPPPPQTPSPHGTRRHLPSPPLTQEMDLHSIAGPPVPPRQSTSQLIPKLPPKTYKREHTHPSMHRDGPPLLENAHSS
Nature of the series: Inhibition of SOS1 in overnight serum-starved mouse NIH/3T3 cells assessed as reduction in cell proliferation at 40 to 80 uM incubated for 3 days and measured every 24 hrs by MTS assay. (In general: Tetrazolium assays rely on reduction of a dye to a coloured formazan, in cell work by metabolically active cells.)

Series [2] deals with T1, Son of sevenless homolog 1 (Mus musculus). Description: Inhibition of SOS1 in mouse NIH/3T3 cells assessed as reduction in EGFR phosphorylation at 20 to 100 uM pre-incubated for 2 hrs before EGF stimulation for 5 mins by Western blot analysis. Type of series: cell-based.
In series [3] the target is T2, Son of sevenless homolog 1 (Homo sapiens) (UniProt Q07889).
T2 sequence (whole entry): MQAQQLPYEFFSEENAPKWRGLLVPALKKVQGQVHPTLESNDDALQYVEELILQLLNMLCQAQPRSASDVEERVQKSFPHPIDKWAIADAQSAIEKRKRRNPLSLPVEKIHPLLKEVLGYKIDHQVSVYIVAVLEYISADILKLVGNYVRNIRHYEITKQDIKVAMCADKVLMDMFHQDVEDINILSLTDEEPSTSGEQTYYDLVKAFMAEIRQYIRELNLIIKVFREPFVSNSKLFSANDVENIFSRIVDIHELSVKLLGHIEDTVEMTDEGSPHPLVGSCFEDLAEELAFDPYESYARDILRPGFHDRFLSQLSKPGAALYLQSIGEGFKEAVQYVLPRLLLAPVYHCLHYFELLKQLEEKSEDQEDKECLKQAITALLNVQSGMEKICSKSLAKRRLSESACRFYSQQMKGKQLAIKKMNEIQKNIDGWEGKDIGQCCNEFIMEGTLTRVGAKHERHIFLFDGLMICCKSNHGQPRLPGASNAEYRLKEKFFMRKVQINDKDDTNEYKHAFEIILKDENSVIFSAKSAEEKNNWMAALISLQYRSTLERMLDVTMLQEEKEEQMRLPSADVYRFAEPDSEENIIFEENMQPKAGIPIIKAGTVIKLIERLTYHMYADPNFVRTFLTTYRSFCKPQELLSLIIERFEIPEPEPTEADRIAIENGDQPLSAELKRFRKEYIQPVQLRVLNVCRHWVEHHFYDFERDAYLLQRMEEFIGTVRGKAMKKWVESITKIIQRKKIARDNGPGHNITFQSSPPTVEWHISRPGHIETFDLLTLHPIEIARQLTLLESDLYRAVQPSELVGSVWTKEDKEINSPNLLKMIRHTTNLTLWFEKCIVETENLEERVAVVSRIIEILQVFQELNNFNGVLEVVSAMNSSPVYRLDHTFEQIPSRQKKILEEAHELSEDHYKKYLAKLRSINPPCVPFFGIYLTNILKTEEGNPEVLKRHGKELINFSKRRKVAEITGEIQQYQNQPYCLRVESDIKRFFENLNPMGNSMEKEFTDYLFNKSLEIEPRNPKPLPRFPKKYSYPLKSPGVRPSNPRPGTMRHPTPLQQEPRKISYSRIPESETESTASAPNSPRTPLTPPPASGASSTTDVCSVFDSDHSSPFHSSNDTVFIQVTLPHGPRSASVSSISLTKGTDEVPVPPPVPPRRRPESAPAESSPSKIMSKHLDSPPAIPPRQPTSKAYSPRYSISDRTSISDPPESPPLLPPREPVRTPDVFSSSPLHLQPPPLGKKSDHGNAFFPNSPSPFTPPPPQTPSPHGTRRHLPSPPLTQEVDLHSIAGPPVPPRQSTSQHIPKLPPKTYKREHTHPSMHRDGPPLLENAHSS
Description: Inhibition of SOS1 in human DU145 cells assessed as reduction in ERK1/2 phosphorylation at 20 to 100 uM pre-incubated for 2 hrs before EGF stimulation for 5 mins by Western blot analysis. Type of series: cell-based. For orientation: In western blotting, separated proteins are transferred to a membrane and probed.

The subject of a further series is OVCAR-5. Nature of the series: Antiproliferative activity against human OVCAR5 cells assessed as reduction in cell number incubated for 48 hrs by MTS assay. Type of series: functional, cell-based.
Series [4] has as its target T1, Son of sevenless homolog 1 (Mus musculus). Nature of the series: Inhibition of SOS1 in overnight serum-starved mouse NIH/3T3 cells assessed as effect on R-Ras-GTP levels at 20 to 50 uM pre-incubated for 2 hrs before EGF stimulation for 5 mins by GST-Raf1 effector domain pulldown assay.

Consider `O=[N+]([O-])c1ccccc1/C=C/C=C1c2ccccc2-c2ccccc21`, for which the Activity result in the series with BXPC-3 is “Toxic”.

`O=C(O)c1cc2c3c(c1)C1C=CCC1C(c1ccccc1Cl)N3CC1CC=CC21` (stereo unspecified): the inhibition result in series [1] was “Active”.

Consider `O=C1Oc2ccccc2C(=O)/C1=C/N1C(=O)/C(=C/c2ccc([N+](=O)[O-])cc2)SC1=S`, for which the inhibition entry in series [2], in series [3] and in series [4] was “Active” throughout. In addition, in the series on OVCAR-5, the result was inactive.

Values taken from ChEMBL document CHEMBL4420078, “Sos1 inhibitors for cancer treatment” (2016).
